Laboratory results: US11713309B2, “Solid forms of Cerdulatinib” (Alexion Pharmaceuticals, Inc., priority 2018, dated 2023)
Where a name gives a salt, the structure may show the parent alone.

Key:
Type in all cases: physicochemical
[1] = Slurry competition of free base forms; conditions: from 5° C. to 50° C.
Protocol: Slurry competition was performed to evaluate the stability of Compound I free base Form II and Type E. A mixture of Compound I free base Form II and Type E were added into 1.0 mL of saturated EtOH or MEK solution (slurry of Form I at 5° C./RT/50° C. overnight). The suspensions were stirred at target temperatures.
Slurry competition was performed to evaluate the stability of free base Form I and Form II. A mixture of free base Form I and Form II were added into 1.0 mL of saturated EtOH or MEK solution (slurry of Form I at 5° C./RT/50° C. overnight). The suspensions were stirred at target temperatures for 3 days.

[2] = Thermodynamic pH-solubility profile; conditions: 7 days of shaking, about 37° C. water bath
Text: A thermodynamic pH-solubility profile of Compound I HCl Form I in various buffer or non-buffer solutions is further provided in FIG. 61. FIG. 61 additionally includes the thermodynamic pH-solubility profile of Compound I free base. It is of note that no data is shown in the profile of Compound I free base below a pH of about 2.0, as Compound I free base converted to Compound I HCl Form I below a pH of about 2.0. Similarly, no data is shown in the profile of Compound I HCl Form I above a pH of about 3.0, as Compound I HCl Form I converted to Compound I free base above a pH of about 3.0.

[3] = Thermodynamic aqueous solubility by HPLC; conditions: HPLC grade water, 25° C., 24 hours, second scale up material
Protocol: The suspension was equilibrated at 25° C. for 24 hours. The suspension was then passed through a filter into an HPLC vial. The filtrate was then diluted by an appropriate factor. Quantification was executed by HPLC with reference to a standard solution of approximately 1 mg·mL^−1 in acetonitrile:water (1:1). Different volumes of the standard, diluted and undiluted sample solutions were injected. […] HPLC method parameters are described in Table 1 and Table 2.
Analysis was performed on an Agilent 1100 series liquid chromatography, equipped with a UV detector (DAD or VWD) @ 254 nm and using Chemstation Rev.B.01.03 software for data processing.
(§1) The solubility of the salts/co-crystals of Compound I prepared from the second scale up process was analyzed. The materials recovered after the solubility analysis were evaluated by XRPD to observe any form changes.

[4] = XRPD form evaluation of materials recovered after solubility analysis; conditions: aqueous solubility analysis, second scale up material
Protocol: as §1

[5] = Slurry maturations in various solvents (form reproducibility/stability); conditions: cycling about 25 to about 50° C., about 4 days
Protocol: A series of slurry maturations in various solvents was performed to further analyze the form reproducibility/stability of the esylate, mesylate, HCl, and sulfate salts/co-crystals of Compound I. The solvents chosen were acetonitrile, EtOAc, ethanol, and IPA. The input materials were the salts/co-crystals of Compound I formed via the second scale up process. About 20 mg of each sample was charged to reflux tubes and heated with temperature cycling between about 25 and about 50° C. for about 4 days. The resulting materials were isolated by filtration and dried in vacuo at about 40° C. The results of the slurry maturations for the resulting HCl and mesylate salts/co-crystals are presented in subsections (a)-(d) below. The data for the resulting esylate and sulfate salts/co-crystals of Compound have been omitted due to notable form variation.

[6] = Gravimetric vapor sorption (GVS) hygroscopicity
Protocol: Sorption isotherms were obtained using a Hiden Isochema moisture sorption analyser (model IGAsorp), controlled by IGAsorp Systems Software v6.50.48. The sample was maintained at a constant temperature (25° C.) by the instrument controls. The humidity was controlled by mixing streams of dry and wet nitrogen, with a total flow of 250 mL·min^−1. The instrument was verified for relative humidity content by measuring three calibrated Rotronic salt solutions (10-50-88%). The weight change of the sample was monitored as a function of humidity by a microbalance (accuracy+/−0.005 mg). A defined amount of sample was placed in a tared mesh stainless steel basket under ambient conditions. A full experimental cycle consisted of two scans (sorption and desorption) at a constant temperature (25° C.) and 10% RH intervals over a 10-90% range (90 minutes for each humidity level).
The hygroscopicity of the esylate, mesylate, HCl, and sulfate salts/co-crystals of Compound I formed via the first scale up process was analyzed. All hygroscopicity experiments covered a wide range of humidity (0 to about 90% relative humidity) and were performed at about 25° C. to assess behavior.

[7] = Moisture uptake study of Compound I HCl amorphous at ambient conditions

With `CCS(=O)(=O)N1CCN(c2ccc(Nc3ncc(C(N)=O)c(NC4CC4)n3)cc2)CC1` [Compound I Form II, 4-(cyclopropylamino)-2-(4-(4-(ethylsulfonyl)piperazin-1-yl)phenylamino)pyrimidine-5-carboxamide] the “Relative thermodynamic stability (slurry competition with Form I)” value [1] was “more thermodynamically stable” and the “Relative thermodynamic stability (slurry competition with Type E)” value [1] was “more thermodynamically stable than Type E”.
With `CCS(=O)(=O)N1CCN(c2ccc(Nc3ncc(C(N)=O)c(NC4CC4)n3)cc2)CC1` [Compound I, 4-(cyclopropylamino)-2-((4-(4-(ethylsulfonyl)piperazin-1-yl)phenyl)amino)pyrimidine-5-carboxamide] the “pH range in which Compound I free base converted to Compound I HCl Form I” value [2] was less than 2.0.
With `CCS(=O)(=O)N1CCN(c2ccc(Nc3ncc(C(N)=O)c(NC4CC4)n3)cc2)CC1` [Compound I mesylate Form III, 4-(cyclopropylamino)-2-(4-(4-(ethylsulfonyl)piperazin-1-yl)phenylamino)pyrimidine-5-carboxamide] the solubility ([3]; listed as Comp. I Mesylate Similar to Form III) was 2320 µg/mL, the “Form change on solubility analysis (XRPD post vs pre)” value (“Form change on solubility analysis” below) [4] was “same form, which is different than the forms of either input material” and the “Form after slurry maturation (XRPD)” value ([5]; acetonitrile, EtOAc, ethanol, IPA, listed as Compound I mesylate (mono-mesylate) Form III) was “mixture of forms comprising Compound I mesylate Form III and other forms”.
With `CCS(=O)(=O)N1CCN(c2ccc(Nc3ncc(C(N)=O)c(NC4CC4)n3)cc2)CC1` [Compound I sulfate Form II, 4-(cyclopropylamino)-2-(4-(4-(ethylsulfonyl)piperazin-1-yl)phenylamino)pyrimidine-5-carboxamide] the solubility ([3]; listed as Comp. I Sulfate Similar to Form II) was 7 µg/mL, the GVS water absorbed ([6]; 25° C., first scale up material, listed as Comp. I Sulfate Similar to Form II) was “About 0.5 mg” and the “GVS total weight loss” value ([6]; dried to 0% RH) was “about 5.9%”. For the same compound, the “Crystalline form by XRPD post GVS analysis” value ([6]; exposure to humidity 0 to about 90% RH, about 25° C., listed as crystalline Compound I sulfate sample) was “slightly increased the crystallinity”, the “Hygroscopicity (qualitative)” value ([6]; second scale up material) was “facile pick-up of surface moisture” and the “GVS gradual weight gain” value ([6]; up to about 80% RH) was “about 4.2%”. For the same compound, the “Form change on solubility analysis” value ([4]; listed as Compound I sulfate prepared from water) was “no form change”.
For `CCS(=O)(=O)N1CCN(c2ccc(Nc3ncc(C(N)=O)c(NC4CC4)n3)cc2)CC1` [Compound I HCl Form II, 4-(cyclopropylamino)-2-(4-(4-(ethylsulfonyl)piperazin-1-yl)phenylamino)pyrimidine-5-carboxamide], the solubility ([3]; listed as Comp. I HCl (formed using dry HCl) Form II) was 120 µg/mL, the “Form change on solubility analysis” value [4] was “form change to Compound I HCl Form I” and the “Form after slurry maturation (XRPD)” value ([5]; IMA) was “conversion to Compound I Form I”. For the same compound, the “Form after slurry maturation (XRPD)” value ([5]; IPA) was “conversion to Compound I Form I, yet retains some mixed features” and the “Form after slurry maturation (XRPD)” value ([5]; acetonitrile and EtOAc) was “mixture of Compound I Form I, Compound I Form II, and possibly other forms”.
For `CCS(=O)(=O)N1CCN(c2ccc(Nc3ncc(C(N)=O)c(NC4CC4)n3)cc2)CC1` [Compound I HCl amorphous, 4-(cyclopropylamino)-2-(4-(4-(ethylsulfonyl)piperazin-1-yl)phenylamino)pyrimidine-5-carboxamide], the GVS mass change ([6]; above about 40% RH, most markedly above about 80% RH) was “large increase in mass” and the “Crystallinity on exposure to ambient conditions” value [7] was “gradual increase in crystallinity”.
With `CCS(=O)(=O)N1CCN(c2ccc(Nc3ncc(C(N)=O)c(NC4CC4)n3)cc2)CC1` [Compound I sulfate Form I, 4-(cyclopropylamino)-2-(4-(4-(ethylsulfonyl)piperazin-1-yl)phenylamino)pyrimidine-5-carboxamide] the solubility ([3]; listed as Comp. I Sulfate Similar to Form I) was 10 µg/mL and the “Form change on solubility analysis” value ([4]; listed as Compound I sulfate prepared from IPA) was “form change to Compound I sulfate Form II”.
